Patent publication US20200253877A1, “GEMCABENE, PHARMACEUTICALLY ACCEPTABLE SALTS THEREOF, COMPOSITIONS THEREOF AND METHODS OF USE THEREFOR” (NEUROBO PHARMACEUTICALS, INC., priority 2018, published 2020)

Assays:
[1] = test system: STAM™ mice, a murine model of NASH-HCC; assay: Murine STAM model of NASH-HCC: whole blood, plasma and liver biochemistry
[2] = test system: hepatic mRNA expression in STAM™ mice; assay: Murine STAM model of NASH-HCC: hepatic gene expression by quantitative RT-PCR; format: in vivo, mouse
Description: A study was performed to evaluate the efficacy of gemcabene calcium salt hydrate Crystal Form 1 having a PSD90 of 52 μm as measured by laser light diffraction, in treating non-alcoholic steatosis hepatitis (NASH) in the murine STAM™ model of NASH-HCC.
Briefly, two-day old neonatal C57BL/6 male mice were administered low-dose streptozotocin (STZ), and were subsequently fed a HFC diet from 4 weeks of age. In this model, the mice typically develop liver steatosis and diabetes, reaching steatohepatitis within 3 weeks, followed by cirrhosis within 8 weeks, and carcinoma within 16 weeks. In the current study, mice were administered daily oral gemcabene calcium salt hydrate Crystal Form 1 starting at week 6 of age and were sacrificed at week 9. […] These STAM™ groups were orally administered from week 6 one of the following: water-vehicle, gemcabene calcium salt hydrate Crystal Form 1 at 30, 100 and 300 mg/kg daily, or telmisartan ([…]®) 10 mg/kg daily. […] All groups were sacrificed at week 9. Vehicle, gemcabene calcium salt hydrate Crystal Form 1, or telmisartan were administered by oral gavage once daily.
Various gene expression markers of liver metabolism were evaluated by Real-Time PCR (RT-PCR) in all mouse groups. Total RNA was extracted from liver samples using RNAiso (Takara Bio, Japan) according to the manufacturer's instructions. […] of RNA was reverse-transcribed using a reaction mixture containing 4.4 mM MgCl2 (F. Hoffmann-La Roche, Switzerland), 40 U RNase inhibitor (Toyobo, Japan), 0.5 mM dNTP (Promega, USA), 6.28 μM random hexamer (Promega), 5×first strand buffer (Promega), 10 mM dithiothreitol (Invitrogen, USA) and 200 U MMLV-RT (Invitrogen) in a final volume of 20 μL. The reaction was carried out for 1 hour at 37° C., followed by 5 minutes at 99° C. Real-time PCR was performed using real-time PCR DICE and SYBR premix Taq (Takara Bio). To calculate the relative mRNA expression level, the expression of each gene was normalized to that of reference gene 36B4 (gene symbol: RplpO). Information of PCR-primer sets is described in Tables 37A-37C. Statistical analyses were performed using the Bonferroni Multiple Comparison Test on GraphPad Prism 6 (GraphPad Software Inc., USA). P values <0.05 were considered statistically significant. Results are expressed as mean±SD.
In order to calculate the relative mRNA expression level, the expression of each gene was normalized to that of the reference gene 36B4 (gene symbol: RplpO). The gene expression levels were measured by quantitative RT-PCR. Results were normalized with values for the vehicle-treated normal group. […] Gemcabene calcium salt hydrate Crystal Form 1 (PSD90=52 μm) modulated the mRNA expression of many hepatic genes that play a significant role in the liver homeostasis and injury.

[3] = 10 mg/kg PO QD, Day 18 after 8 hours of fasting, mean ± SD, n = 8
[4] = 10 mg/kg PO QD, at termination (Day 21), mean ± SD, n = 7
[5] = 10 mg/kg, n = 7, STAM mice, normalized to non-treated group
[6] = gemcabene Form 1 100 mg/kg, telmisartan 10 mg/kg
[7] = vs Vehicle in NASH group, gemcabene Form 1 100 and 300 mg/kg, telmisartan 10 mg/kg

- plasma ALP levels ([1]; at termination, vs vehicle-treated NASH group, gemcabene Form 1 100 and 300 mg/kg, telmisartan 10 mg/kg): significant increases
- plasma BUN levels ([1]; at termination, vs vehicle-treated STAM mice, telmisartan 10 mg/kg): significant increase
SMILES: CCCc1nc2c(C)cc(-c3nc4ccccc4n3C)cc2n1Cc1ccc(-c2ccccc2C(=O)O)cc1 [telmisartan, reference compound]
- Fasting blood glucose [1, 3]: 742 ± 90 mg/dL
- Plasma insulin [1, 3]: 0.16 ± 0.04 ng/mL
- Liver free fatty acid [1, 4]: 46.8 ± 10.7 pEq/g liver
- Liver hydroxyproline [1, 4]: 0.91 ± 0.12 μg/mg total protein
- Liver triglyceride [1, 4]: 31.7 ± 6.4 mg/g liver
- Non-fasting blood glucose [1, 4]: 856 ± 62 mg/dL
- Plasma ApoC-III [1, 4]: 6.2 ± 0.7 gg/mL
- Plasma CRP [1, 4]: 3.0 ± 0.4 gg/mL
- Plasma adiponectin [1, 4]: 6.8 ± 0.9 gg/mL
- Plasma alanine aminotransferase [1, 4]: 39 ± 15 U/L
- Plasma alkaline phosphatase [1, 4]: 567 ± 104 U/L
- Plasma aspartate aminotransferase [1, 4]: 121 ± 38 U/L
- Plasma blood urea nitrogen [1, 4]: 85.0 ± 17.4 mg/dL
- Plasma creatinine [1, 4]: 0.1 ± 0.0 mg/dL
- Plasma gamma-glutamyl transferase [1, 4]: 1 ± 0 U/L
- Plasma ketone body [1, 4]: 8.11 ± 3.27 m M
- Plasma leptin [1, 4]: 2.9 ± 1.1 ng/mL
- Plasma total bilirubin [1, 4]: 0.3 ± 0.1 mg/dL
- Plasma total cholesterol [1, 4]: 208 ± 19 mg/dL
- Plasma triglyceride [1, 4]: 569 ± 256 mg/dL
- fasting whole blood glucose concentrations ([1]; 3 days prior to termination, 8 h fasting, vs vehicle-treated STAM mice, gemcabene Form 1 30, 100, 300 mg/kg, telmisartan 10 mg/kg, oral daily wk 6-9): significant increase
- whole blood glucose levels ([1]; at termination, vs vehicle-treated STAM mice, gemcabene Form 1 30, 100, 300 mg/kg, telmisartan 10 mg/kg): significant increase
- plasma triglyceride concentrations ([1]; vs vehicle-treated STAM mice, gemcabene Form 1 30, 100, 300 mg/kg (dose-dependent manner), telmisartan 10 mg/kg): no significant difference
- liver triglyceride content ([1]; vs vehicle-treated STAM mice, gemcabene Form 1 30, 100, 300 mg/kg, telmisartan 10 mg/kg): significant decrease
- plasma total cholesterol concentrations ([1]; vs vehicle-treated STAM mice, gemcabene Form 1 100 and 300 mg/kg, telmisartan 10 mg/kg): significant increases
- ACC1 gene expression (mean ± SD) [2, 5]: 0.7 ± 0.1
- ACC2 gene expression (mean ± SD) [2, 5]: 0.3 ± 0.1
- ADH-4 gene expression (mean ± SD) [2, 5]: 0.6 ± 0.2
- ANGPTL3 gene expression (mean ± SD) [2, 5]: 0.7 ± 0.2
- ANGPTL4 gene expression (mean ± SD) [2, 5]: 2.1 ± 0.3
- ANGPTL8 gene expression (mean ± SD) [2, 5]: 0.3 ± 0.1
- ApoC-III gene expression (mean ± SD) [2, 5]: 0.8 ± 0.2
- CCR2 gene expression (mean ± SD) [2, 5]: 2.4 ± 0.8
- CCR5 gene expression (mean ± SD) [2, 5]: 1.5 ± 0.3
- CRP gene expression (mean ± SD) [2, 5]: 0.9 ± 0.1
- CXCL1/KC gene expression (mean ± SD) [2, 5]: 0.6 ± 0.3
- Fetuin-A gene expression (mean ± SD) [2, 5]: 1.0 ± 0.1
- IL-1β gene expression (mean ± SD) [2, 5]: 0.7 ± 0.2
- IL-6 gene expression (mean ± SD) [2, 5]: 0.8 ± 0.4
- LDL receptor gene expression (mean ± SD) [2, 5]: 0.7 ± 0.3
- LPL gene expression (mean ± SD) [2, 5]: 2.4 ± 0.5
- MCP-1 gene expression (mean ± SD) [2, 5]: 2.1 ± 1.0
- MIP-1β gene expression (mean ± SD) [2, 5]: 3.9 ± 1.5
- MMP-2 gene expression (mean ± SD) [2, 5]: 1.4 ± 0.7
- NF-κB gene expression (mean ± SD) [2, 5]: 1.1 ± 0.1
- PNPLA3 gene expression (mean ± SD) [2, 5]: 0.1 ± 0.0
- SCD1 gene expression (mean ± SD) [2, 5]: 0.1 ± 0.0
- SREBP-1 gene expression (mean ± SD) [2, 5]: 0.7 ± 0.2
- Sulf-2 gene expression (mean ± SD) [2, 5]: 3.9 ± 0.9
- TIMP-1 gene expression (mean ± SD) [2, 5]: 8.6 ± 5.1
- TNF-α gene expression (mean ± SD) [2, 5]: 3.0 ± 1.2
- α-SMA gene expression (mean ± SD) [2, 5]: 2.3 ± 0.7
- LDL receptor gene expression ([2]; STAM mice): no effect
- ACC-1 mRNA expression (relative, mean±SD) [2, 6]: 0.7±0.1
- ADH-4 mRNA expression (relative, mean±SD) [2, 6]: 0.6±0.2
- CCR2 mRNA expression (relative, mean±SD) [2, 6]: 2.4±0.8
- CCR5 mRNA expression (relative, mean±SD) [2, 6]: 1.5±0.3
- CRP mRNA levels (relative, mean±SD) [2, 6]: No significant differences
- MCP-1 mRNA expression (relative, mean±SD) [2, 6]: 2.1±1.0
- MIP-1β mRNA levels (relative, mean±SD) [2, 6]: 3.9±1.5
- hepatic LPL mRNA expression levels ([2]; vs Vehicle in NASH group, gemcabene Form 1 30, 100 and 300 mg/kg, telmisartan 10 mg/kg): no significant difference
- ANGPTL4 mRNA expression levels [2, 7]: significant down-regulations
- IL-6 mRNA expression level [2, 7]: significant down-regulations
